According to US20250326639A1, “METHOD FOR PRODUCING HYDROGEN PEROXIDE” (ARKEMA FRANCE, priority 2022, published 2025):

Columns and labels:
[1] = Flash point, closed-cup apparatus, ASTM-D3278; assay type: physicochemical
Source text: The flash point may be determined using a closed-cup apparatus in accordance with the standard ASTM-D3278.

[2] = Vapour pressure by ebulliometry, ASTM-E1719; assay type: physicochemical
Source text: The vapour pressure may be determined by ebulliometry in accordance with the standard ASTM-E1719.

[3] = Specific gravity by hydrometer, ASTM-D891; assay type: physicochemical
Source text: The specific gravity may be determined by means of a hydrometer in accordance with the standard ASTM-D891.

[4] = Solubility in water by coulometric Karl Fischer titration, ASTM-D6304; assay type: physicochemical
Source text: The solubility in water may be determined by coulometric Karl Fischer titration in accordance with the standard ASTM-D6304.

[5] = Solubility of 2-ethyltetrahydroanthrahydroquinone in tested solvents (protocol of the patent); conditions: 2-THEAHQ dissolved in the tested lactone solvent; hydrogenation of parent quinone, cooled until precipitation, liquid chromatography
Procedure: In the following examples, the solubilities of 2-ethyltetrahydroanthrahydroquinone (2-THEAHQ) were tested in different solvents in accordance with the protocols detailed below.
For 2-ethyltetrahydroanthrahydroquinone, the solubilities were determined by dissolving a weighed amount of the parent quinone in the tested solvent. After the addition of a Pd-based catalyst to the solution, the mixture was hydrogenated until hydrogen absorption ceases, and then cooled until precipitation occurs.
The samples were analysed by liquid chromatography. Reference mixtures were prepared for calibration.

| Compound | Flash point (° C.) [1] [°C] | Vapour pressure (Pa) [2] [Pa] | Specific gravity [3] | Solubility in water (mg/kg) [4] | Solubility of 2-THEAHQ [5] [g/L] | Solubility in water [4] [mg/kg] |
| --- | --- | --- | --- | --- | --- | --- |
| CC1CC(=O)O1 (stereo not drawn) [β-butyrolactone] | 74 | 212 | 1.076 | 158.9 10^3 mg/kg | – | – |
| O=C1CCO1 [β-propiolactone] | 70 | 418 | 1.137 | – | 70 | – |
| O=C1CCCO1 [γ-butyrolactone] | 97 | 87 | 1.136 | 484.3 10^3 mg/kg | – | – |
| CCCCC1CCC(=O)O1 (stereo not drawn) [γ-octalactone] | – | – | – | – | 281 | – |
| CCCCCCCC1CCCC(=O)O1 (stereo not drawn) [δ-dodecalactone] | 168 | 0.05 | 0.962 | – | 276 | 1113 |
